Reference: EP0471358B1, “Fluoroethylcamptothecin derivatives” (KYORIN PHARMACEUTICAL CO., LTD., priority 1990, dated 1992)

tested on: P388 leukemia; experiment: Antineoplastic effect for P388 leukemia mice (survival, T/C); type: in vivo, CDF₁ mice; conditions: Total dose 20 mg/kg; dosed to the abdominal cavity 1, 5 and 9 days after transplantation of 10⁶ P388 cells; average survival days of dosed vs non-dosed group
Procedure: P388 cells of 10⁶ in number were transplanted into abdominal cavity of CDF₁ mice of approximately 9 week-age (female, Non-dosed group: 5 - 8 mice, group dosed with the test compound: 1 - 5 mice). One, five, and nine days after the transplantation, the test compound which was dissolved or suspended in 1% Tween 80 (Kanto Chemical Inc.)/physiological saline was dosed to the abdominal cavity. The antineoplastic effect of the test compounds are shown by the T/C value (%) derived from the formula below. (T)/(C)(%) =(Average survival days of dosed group)/(Average survival days of non-dosed group)x 100 [formula]

Row | Structure (SMILES) | T/C (%)
1 | CC[C@@]1(O)C(=O)OCc2c1cc1n(c2=O)Cc2cc3ccccc3nc2-1 [Camptothecin] | 218
2 | O=C1OCc2c(cc3n(c2=O)Cc2c-3nc3ccc(Cl)c4c3c2CCC4)C1(O)CCF (stereo not shown) [Example 24, 4-chloro-9-(2-fluoroethyl)-2,3-dihydro-9-hydroxy-1H,12H-benzo[d,e]pyrano[3',4':6,7]indolizino[1,2-b]quinoline-10,13(9H,15H)-dione] | 385
3 | CCc1c2c(nc3ccc([N+](=O)[O-])cc13)-c1cc3c(c(=O)n1C2)COC(=O)C3(O)CCF (stereo not shown) [Example 16, 11-ethyl-4-(2-fluoroethyl)-4-hydroxy-9-nitro-1H-pyrano[3',4':6,7]indolizino[1,2-b]quinoline-3,14(4H,12H)-dione] | 345
4 | CCc1c2c(nc3ccc(C)cc13)-c1cc3c(c(=O)n1C2)COC(=O)C3(O)CCF (stereo not shown) [Example 11, 11-ethyl-4-(2-fluoroethyl)-4-hydroxy-9-methyl-1H-pyrano[3',4':6,7]indolizino[1,2-b]quinoline-3,14(4H,12H)-dione] | 483

same assay, conditions: Total dose 30 mg/kg; dosed to the abdominal cavity 1, 5 and 9 days after transplantation of 10⁶ P388 cells; average survival days of dosed vs non-dosed group

Row | Structure (SMILES) | T/C (%)
5 | Cc1c2c(nc3ccccc13)-c1cc3c(c(=O)n1C2)COC(=O)C3(O)CCF (stereo not shown) [Example 41, 4-[2-fluoroethyl)-4-hydroxy-11-methyl-1H-pyrano[3',4':6,7]indolizino[1,2-b]quinoline-3,14(4H,12H)-dione] | 386
6 | CCOc1ccc2nc3c(c(CC)c2c1)Cn1c-3cc2c(c1=O)COC(=O)C2(O)CCF (stereo not shown) [Example 26, 9-ethoxy-11-ethyl-4-[2-fluoroethyl)-4-hydroxy-1H-pyrano[3',4':6,7]indolizino[1,2-b]quinoline-3,14(4H,12H)-dione] | 583
7 | CCc1ccc2nc3c(c(CC)c2c1)Cn1c-3cc2c(c1=O)COC(=O)C2(O)CCF (stereo not shown) [Example 25, 9,11-diethyl-4-(2-fluoroethyl)-4-hydroxy-1H-pyrano[3',4':6,7]indolizino[1,2-b]quinoline-3,14(4H,12H)-dione] | 345
